# “And” between values parts separate entries of the source, which are not always exact repeats. Equal entries are not always repeated.
# Assays:
# [1] = DPPH assay (antioxidant potential); details: DPPH 100 μM; 30 minutes at 37 °C; triplicate
# Protocol: DPPH assay as reported earlier was used to determine the antioxidant potential of newly synthesised compound.[46] For experiment, […] (100 μM) solution was mixed with 5 μl of sample compounds and ascorbic acid (positive control) at concentration of 100, 50 and 25 μM in 96-well plate respectively. Plate was incubated in dark for 30 minutes at 37 °C and then absorbance was measured at 515 nm using Elx800 microtiter plate reader. The experiment was performed in triplicate and percentage scavenging was calculated as following:Percentage scavenging (%) = [1 − absorbance of sample/absorbance of control] × 100
# α-amylase = format: biochemical; details: starch substrate; pH 6.8; 30 minutes at 50 °C; triplicate
# Protocol: α-Amylase inhibition assay was performed to calculate the enzyme inhibition potential of newly synthesised compounds.[48] […] In blank 40 μl starch and 50 μl phosphate buffer was added. […] Then absorbance was measured at 540 nm using Elx800 microtiter plate reader.
# Escherichia coli = experiment: Antibacterial disc diffusion assay; format: cell-based
# Protocol: (§1) Anti-bactericidal activity of the compounds was determined by using disc diffusion method. […] The assay was performed in triplicate and Kanamycin was used as positive control. […] According to Yildiz et al.[39] the antibacterial activity of a substitution connected to a biologically active molecule may be increased.
# (§2) Disc diffusion assay was used to determine the antibacterial potential of newly synthesised compounds as reported earlier.[45] For experiment, 1% inoculum of Bacillus subtilis, Staphylococcus aureus, Escherichia coli and Pseudomonas aeruginosa was transferred to autoclaved nutrient agar media (23 g l^−1) respectively. Then media were poured in respective plates and allowed to solidify. Samples (100 μM) and Kanamycin drug (10 μM) was loaded on sterile paper disc (5 mm) and these discs were placed on Petriplates at appropriate distance. Plates were incubated for 24 hours at 37 °C and zone of inhibition were measured using Vernier calliper.
# Bacillus subtilis = experiment: Antibacterial disc diffusion assay; format: cell-based; details: for MIC / zone of inhibition at 100 µM: Bacillus subtilis
# Protocol: as §1, §2
# Staphylococcus aureus = experiment: Antibacterial disc diffusion assay; format: cell-based
# Protocol: as §1, §2
# Pseudomonas aeruginosa = experiment: Antibacterial disc diffusion assay; format: cell-based
# Protocol: as §1, §2
# [2] = tested on: Bacillus subtilis, Staphylococcus aureus, Escherichia coli and Pseudomonas aeruginosa; experiment: Antibacterial disc diffusion assay, all four tested strains; format: cell-based
# Protocol: as §1, §2
# urease = urease (Canavalia ensiformis, UniProt P07374); details: read-out: Urease IC50; 100 mM urea; pH 8.2; 37 °C; triplicate
# [3] = disc diffusion, samples 100 μM, Kanamycin 10 μM on disc, 24 hours at 37 °C
# Sequence of urease (P07374 whole entry, looked up, the tested form may be a part): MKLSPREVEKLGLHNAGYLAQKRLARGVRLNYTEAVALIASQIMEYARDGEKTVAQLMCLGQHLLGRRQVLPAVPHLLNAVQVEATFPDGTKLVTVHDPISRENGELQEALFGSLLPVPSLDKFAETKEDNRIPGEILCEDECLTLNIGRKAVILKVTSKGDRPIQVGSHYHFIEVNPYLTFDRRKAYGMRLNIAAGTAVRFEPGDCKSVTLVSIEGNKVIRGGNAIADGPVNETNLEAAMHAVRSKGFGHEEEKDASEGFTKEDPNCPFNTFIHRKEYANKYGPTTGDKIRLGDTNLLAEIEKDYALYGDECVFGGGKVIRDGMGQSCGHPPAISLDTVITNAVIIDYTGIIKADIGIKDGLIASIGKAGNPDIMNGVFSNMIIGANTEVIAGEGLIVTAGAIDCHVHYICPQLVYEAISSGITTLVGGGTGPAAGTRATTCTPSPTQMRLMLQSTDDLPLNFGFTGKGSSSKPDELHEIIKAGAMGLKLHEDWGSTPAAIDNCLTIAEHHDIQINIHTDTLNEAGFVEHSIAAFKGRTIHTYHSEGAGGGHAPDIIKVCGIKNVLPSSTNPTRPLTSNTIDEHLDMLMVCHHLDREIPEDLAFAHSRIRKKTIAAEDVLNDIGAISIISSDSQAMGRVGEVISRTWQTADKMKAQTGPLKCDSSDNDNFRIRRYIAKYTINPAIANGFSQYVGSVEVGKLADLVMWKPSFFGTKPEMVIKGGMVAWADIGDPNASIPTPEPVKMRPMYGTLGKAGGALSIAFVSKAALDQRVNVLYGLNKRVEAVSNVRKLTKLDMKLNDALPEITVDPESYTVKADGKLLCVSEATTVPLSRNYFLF
Structure (SMILES),IC50 [1],IC50 (α-amylase) [µM],melting point [°C],antibacterial activity against tested bacterial strains [2],also measured
"O=C1O[C@H]([C@@H](O)CO)C(O)=C1O [Ascorbic acid, reference compound]",0.892 µM and 0.89 µM,,,,
"Cc1nc(N)sc1C(=O)NC12CC3CC(CC(C3)C1)C2 [Compound 6a, N-(Adamantan-1-yl)-2-amino-4-methylthiazole-5-carboxamide]",157 ± 10.3 µM,118.3 ± 0.71,256 to 257,significant antibacterial activity,"MIC (Escherichia coli; Escherichia coli): 50 µM; zone of inhibition at 100 µM (Escherichia coli; Escherichia coli, disc diffusion, samples 100 μM, Kanamycin 10 μM on disc, 24 hours at 37 °C): 11 mm; MIC (Bacillus subtilis): 50 µM; zone of inhibition at 100 µM (Bacillus subtilis; [3]): 13 mm; MIC (Staphylococcus aureus; Staphylococcus aureus): 75 µM; zone of inhibition at 100 µM (Staphylococcus aureus; Staphylococcus aureus, disc diffusion, samples 100 μM, Kanamycin 10 μM on disc, 24 hours at 37 °C): 8 mm; MIC (Pseudomonas aeruginosa; Pseudomonas aeruginosa): 50 µM; zone of inhibition at 100 µM (Pseudomonas aeruginosa; Pseudomonas aeruginosa, disc diffusion, samples 100 μM, Kanamycin 10 μM on disc, 24 hours at 37 °C): 10 mm"
"Cc1nc(Nc2ccc([N+](=O)[O-])cc2)sc1C(=O)NC12CC3CC(CC(C3)C1)C2 [Compound 6b, N-(Adamantan-1-yl)-4-methyl-2-((4-nitrophenyl)amino)thiazole-5-carboxamide]",108 ± 1.93 µM,> 100,300 to 303,no antibacterial activity,
"Cc1nc(Nc2ccc(Br)cc2)sc1C(=O)NC12CC3CC(CC(C3)C1)C2 [Compound 6c, N-(Adamantan-1-yl)-4-methyl-2-((4-bromophenyl)amino)thiazole-5-carboxamide]",126 ± 2.66 µM,> 100,277 to 280,activity against one bacterial strain out of four,MIC (Bacillus subtilis): 75 µM; zone of inhibition at 100 µM (Bacillus subtilis; [3]): 7 mm
"COc1ccc(Nc2nc(C)c(C(=O)NC34CC5CC(CC(C5)C3)C4)s2)cc1 [Compound 6d, N-(Adamantan-1-yl)-4-methyl-2-((4-methoxyphenyl)amino)thiazole-5-carboxamide]",19.2 ± 0.37 µM,97.4 ± 1.53,226 to 229,no antibacterial activity,
"COc1ccccc1Nc1nc(C)c(C(=O)NC23CC4CC(CC(C4)C2)C3)s1 [Compound 6e, N-(Adamantan-1-yl)-4-methyl-2-((2-methoxyphenyl)amino)thiazole-5-carboxamide]",110.3 ± 0.76 µM,> 100,210 to 212,no antibacterial activity,α-Amylase IC50 (α-amylase): inactive
"Cc1nc(Nc2cccc(Cl)c2)sc1C(=O)NC12CC3CC(CC(C3)C1)C2 [Compound 6f, N-(Adamantan-1-yl)-4-methyl-2-((3-chlorophenyl)amino)thiazole-5-carboxamide]",136.7 ± 1.33 µM,> 100,253 to 254,no antibacterial activity,
"Cc1nc(Nc2ccccc2Cl)sc1C(=O)NC12CC3CC(CC(C3)C1)C2 [Compound 6g, N-(Adamantan-1-yl)-4-methyl-2-((2-chlorophenyl)amino)thiazole-5-carboxamide]",122 ± 6.54 µM,> 100,202 to 203,activity against one bacterial strain out of four,MIC (Bacillus subtilis): 75 µM; zone of inhibition at 100 µM (Bacillus subtilis; [3]): 7 mm
"Cc1nc(Nc2ccc(NS(C)(=O)=O)c(Oc3ccccc3)c2)sc1C(=O)NC12CC3CC(CC(C3)C1)C2 [Compound 6h, N-Adamantyl-4-methyl-2-((4-(methylsulfonamido)-3-phenoxyphenyl)amino) thiazole-5-carboxamide]",64.1 ± 0.71 µM,> 100,156 to 160,,
"Cc1nc(Nc2cccc(F)c2)sc1C(=O)NC12CC3CC(CC(C3)C1)C2 [Compound 6i, N-Adamantyl-2-((3-fluorophenyl)amino)-4-methylthiazole-5-carboxamide]",131 ± 1.11 µM,> 100,220 to 225,,
"Cc1nc(NC23CC4CC(CC(C4)C2)C3)sc1C(=O)NC12CC3CC(CC(C3)C1)C2 [Compound 6j, N-Adamantanyl-2-(((3s,5s,7s)-adamantan-1-yl)amino)-4-methylthiazole-5-carboxamide]",137.9 ± 0.9 µM,> 100,250 to 253,,
"NC[C@H]1O[C@H](O[C@H]2[C@H](O)[C@@H](O[C@H]3O[C@H](CO)[C@@H](O)[C@H](N)[C@H]3O)[C@H](N)C[C@@H]2N)[C@H](O)[C@@H](O)[C@@H]1O [Kanamycin, reference compound]",,,,,MIC Escherichia coli (Escherichia coli): MIC = 25 μM; Antibacterial zone of inhibition Escherichia coli (Escherichia coli; [3]): 20 mm; MIC Bacillus subtilis (Bacillus subtilis): MIC = 25 μM; Antibacterial zone of inhibition Bacillus subtilis (Bacillus subtilis; [3]): 21 mm; MIC Staphylococcus aureus (Staphylococcus aureus): MIC = 20 μM; Antibacterial zone of inhibition Staphylococcus aureus (Staphylococcus aureus; [3]): 24 mm; MIC Pseudomonas aeruginosa (Pseudomonas aeruginosa): MIC = 20 μM; Antibacterial zone of inhibition Pseudomonas aeruginosa (Pseudomonas aeruginosa; [3]): 22 mm
NC(N)=S [Thiourea],,,,,IC50 (urease): 1.33 µM
